Results: PubChem BioAssay (NCI)
Several values for one entry are separate records, joined by “and”; a condition that tells them apart may be missing. Equal entries are not always repeated.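 Interpolation was linear, between the two tested concentrations surrounding the appropriate level; five concentrations were tested over 48 hours in 96-well plates. GI50 is the concentration that inhibits growth by half. TGI denotes the concentration required for complete inhibition of growth.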

How the values were obtained:
Experiment in all cases: NCI tumour cell line growth inhibition, 48 h
ACHN renal = tested on: ACHN renal
KM20L2 colon = tested on: KM20L2 colon
HS 578T breast = tested on: HS 578T breast
UO-31 renal = tested on: UO-31 renal
SNB-19 CNS = tested on: SNB-19 CNS
DU-145 prostate = tested on: DU-145 prostate
OVCAR-4 ovarian = tested on: OVCAR-4 ovarian
SK-MEL-5 melanoma = tested on: SK-MEL-5 melanoma
DLD-1 colon = tested on: DLD-1 colon
BT-549 breast = tested on: BT-549 breast

Compound	GI50 (ACHN renal) [µM]	TGI (ACHN renal)	TGI (KM20L2 colon) [µM]	TGI (HS 578T breast) [µM]	GI50 (UO-31 renal) [µM]	TGI (UO-31 renal)	GI50 (SNB-19 CNS) [µM]	TGI (SNB-19 CNS)	GI50 (DU-145 prostate) [µM]	TGI (DU-145 prostate)	GI50 (OVCAR-4 ovarian) [µM]	TGI (OVCAR-4 ovarian)	GI50 (SK-MEL-5 melanoma)	TGI (SK-MEL-5 melanoma)	TGI (DLD-1 colon) [µM]	TGI (BT-549 breast) [µM]	GI50 (KM20L2 colon) [µM]	GI50 (DLD-1 colon) [µM]
Cc1cc(NC(=O)NC(=O)c2ccccc2NC(=O)CN)ccc1Oc1ncc(Br)cn1	5.25	40.7 µM and 80.3 µM	18.6	4.69	2.1	50.1 µM and > 100 µM	0.336	26.3 µM and 16.4 µM	0.342	20.1 µM and 15.9 µM	17	45.4 µM and > 100 µM	0.2 µM and 0.0445 µM	43.9 µM and 26.8 µM	4.62			
NC1=C(Cl)C(=O)c2ccccc2C1=O		22.7 µM	28			29.9 µM		24.2 µM		3.84 µM		15.9 µM		2.09 µM	37.9	4.19		
Nc1nc(SCCC/C=C/I)nc2c1ncn2C1OC(CO)C(O)C1O (stereo not given)		> 202 µM	> 202			> 202 µM		> 202 µM				> 202 µM		> 202 µM	> 202			
COC(=O)C1=Cc2c(cc(OC)c(OC)c2OC)[C@H](c2ccc(OC)c(OC)c2OC)C1C(=O)OC (stereo not given in full)		> 100 µM	> 100			> 100 µM		> 100 µM				> 100 µM		> 100 µM	> 100			
CCC[CH2][Sn]1([CH2]CCC)[O]C(=O)CN=Cc2ccccc2[O]1	0.323	1.1 µM	2.26		0.512	1.77 µM	0.222	0.556 µM			0.881	2.32 µM	1.49 µM	> 100 µM	> 100		1.02	0.568
O=C(O)CCCNS(=O)(=O)c1ccc2ccccc2c1		> 100 µM	> 100			> 100 µM		> 100 µM				> 100 µM		> 100 µM	> 100			
CCOC(=O)[C@H]1Nc2ccc(Cl)cc2[C@H]2c3ccccc3O[C@H]21		> 100 µM	> 100			> 100 µM		> 100 µM				> 100 µM		> 100 µM	> 100			
Cc1cc2c(cc1Br)C1(C)CCC(C)C1(C)O2 (stereo not given)		> 100 µM	> 100			> 100 µM		> 100 µM				> 100 µM		80.1 µM	> 100			
CCOC(=O)C(=O)Nc1ccc(Cl)c(C(F)(F)F)c1		> 100 µM	> 100			> 100 µM		> 100 µM				> 100 µM		> 100 µM	> 100			
NC(=O)c1c2c(cc3c(=O)c4ccccc4[nH]c13)CCCC2		> 100 µM	> 100			> 100 µM		> 100 µM				> 100 µM		> 100 µM	> 100			
COc1ccc(C(O)/C(=C/n2ccnc2)c2ccccc2)cc1OC (stereo not given)		> 100 µM	> 100			> 100 µM		> 100 µM				> 100 µM		> 100 µM	> 100			
COC(=O)[C@]12CC=C3O[C@@H]4OC5(CCCCC5)O[C@@H]4[C@H]3C1C(=O)C=CC2=O (stereo not given in full)		32.6 µM	37.5	78.4		30.8 µM		66.2 µM		47.2 µM		31.4 µM		32.8 µM	29.9	34.5		
C=CCN(CC=C)CC(C(C)=O)C(c1ccccc1)c1c(O)c2ccccc2oc1=O (stereo not given)		> 100 µM	> 100			> 100 µM		> 100 µM				> 100 µM		> 100 µM	> 100			
COC(=O)n1c(CBr)c(Br)c2ccccc21		47.9 µM	> 100			71.1 µM		> 100 µM				66.2 µM		> 100 µM	> 100			
O=CN1CCN(C=S)CC1		> 100 µM	> 100			> 100 µM		> 100 µM				> 100 µM		> 100 µM	> 100			
